Measured values as given in patent US10202412B2, “β-D-2′-deoxy-2′-substituted-4′-substituted-2-substituted-N6-substituted-6-aminopurinenucleotides for the treatment of paramyxovirus and orthomyxovirus infections” (Atea Pharmaceuticals, Inc., priority 2016, dated 2019).
pEC50, pIC50: −log10 of the molar value.

Legend:
[1] = tested on: Respiratory syncytial virus (RSV) type A, strain A2 (ATCC VR-1540); test: dNHBE assay: RSV virus yield reduction (EC90); type: cell-based; conditions: RSV (A2) in dNHBE cells, concentration reducing virus yield by 1 log10, mean of at least two experiments
Protocol: (§1) Differentiated normal human bronchial epithelial (dNHBE) cells were grown on 6 mm mesh disks in transwell inserts to approximately 1.2×10^6 cells/disk and disks were transferred to individual wells of a 6-well plate. 1 mL of proprietary culture medium was added to the basolateral side of the cells and the apical side was exposed to a humidified 95% air/5% CO2 environment. Cells were cultured at 37° C. for one day and then the mucin layer was removed from the apical side of the cells by repeated (3×) washing with 500 μL 30 mM HEPES buffered saline solution and culture medium on the basal side was replenished.
Respiratory syncytial virus (RSV) type A, strain A2 (ATCC VR-1540), previously passaged in MA-104 cells to make working stock cultures, was diluted 1/10 in medium before infection, using a multiplicity of infection (MOI) of ≤0.03 CCID50 per cell.
(§2) Various concentrations of test compounds in medium were applied in duplicate to the apical (140 μL) and basal sides (1 mL) for a 1 hour pre-treatment, followed by addition of 140 μL of virus inoculum to each cell insert on the apical side. The viral inoculum and treatments were removed after 2 hours. Control cells were treated with placebo (culture medium only). Following infection, the apical medium was removed and the basal side was replaced with fresh compound in medium. The cells were maintained at the air-liquid interface, and cell culture medium on the basal side was replaced daily with fresh medium containing test compound. After 4 days, the liquid was removed from the basal side and discarded and virus released into the apical compartment was harvested by the addition of 500 μL of culture medium. The medium was thoroughly mixed, then removed, diluted 1:1 with 40% sucrose and stored at ≤−80° C.
To determine the virus titer from each treated cell culture, MA-104 cells were seeded in 96-well plates and grown overnight (37° C.) to confluence. Samples containing virus were diluted in 10-fold increments in infection medium and 200 μL of each dilution transferred into respective wells of a 96-well microtiter plate. Four microwells were used for each dilution to determine 50% viral endpoints. After 7 days of incubation, each well was scored positive for virus if any cytopathic effect was observed as compared with the uninfected control. The virus dose that was able to infect 50% of the cell cultures (CCID50 per 0.1 mL) was calculated by the Reed-Muench method. This was repeated in duplicate for each test sample, so that values reported are an average of 2 independent CCID5o determinations. Untreated, uninfected cell controls were tested as negative controls. Statistical differences in the titers were evaluated with a one-way analysis of variance (ANOVA) followed by Dunnett's multiple comparisons test compared with the untreated virus controls.
(§3) Concentrations of test compounds that reduced virus yield by 1 log10 (90% effective concentration; EC90) were calculated by regression analysis. The reported EC90 value is the mean of at least two experiments. Potential toxicity of the test compounds was evaluated microscopically.

[2] = tested on: Differentiated normal human bronchial epithelial (dNHBE) cells; test: dNHBE assay: toxicity evaluated microscopically; type: cell-based; design: unit not given here
Protocol: as §1, §2, §3

[3] = tested on: HEp-2 cells; test: Cytotoxicity in uninfected HEp-2 cells, neutral red; type: cell-based; design: unit not given here; conditions: absence of virus
Protocol: (§4) Test compounds were dissolved in DMSO and then prepared in eight half-log dilutions in MEM medium with 50 μg/mL gentamicin and 2% FBS (MA-104 cells only). Each dilution was added to 5 wells of a 96-well plate with 80-100% confluent cells (either MA-104 cells or HEp-2 cells). Three wells of each dilution were infected with respiratory syncytial virus A2 (ATCC VR-1540) and two wells remained uninfected as toxicity controls. After maximum cytopathic effect (CPE) was observed microscopically in untreated virus control wells, plates were stained with neutral red dye for approximately 2 hours, then supernatant dye was removed and the incorporated dye was extracted in 50:50 Sorensen citrate buffer/ethanol and read on a spectrophotometer. Optical density values were normalized based on cell and virus controls, then the concentration of test compound required to inhibit CPE by 50% (EC50) was calculated by regression analysis. The reported EC50 value is the mean of at least two experiments. The concentration of compound that caused 50% CPE in the absence of virus was similarly calculated to determine cytotoxicity (CC50).

[4] = tested on: respiratory syncytial virus A2 (ATCC VR-1540); test: Cytopathic effect assay with RSV A2 in HEp-2 cells; type: cell-based; conditions: human respiratory syncytial virus; RSV in HEp-2 cells, CPE inhibition, neutral red
Protocol: as §4

[5] = tested on: respiratory syncytial virus A2 (ATCC VR-1540); test: Cytopathic effect assay with RSV A2 in MA-104 cells; type: cell-based; conditions: human respiratory syncytial virus, MA104, CPE inhibition, neutral red
Protocol: as §4

[6] = tested on: iPS cardiomyocytes; test: iPS cardiomyocyte assay (XTT viability); type: cell-based; conditions: 72 h, 3 days incubation, XTT staining
Protocol: Select compounds were tested in an in vitro selectivity study with iPS cardiomyocytes. iPS cardiomyocytes (Cellular Dynamics) were seeded in microliter plates at 1.5×10^4 cells per well. After 48-hr incubation, cells were washed and maintenance medium containing 30 serially diluted TA was added in triplicate. After incubating for an additional 3 days, cellviability was measured by staining with XTT and CC50 values were calculated. No cytotoxicity was observed from any of the tested compounds.

[7] = tested on: human bone marrow progenitor cells (BFU-E); test: Human bone marrow progenitor cell assay, BFU-E; type: cell-based; conditions: Homo sapiens, 336 h; BFU-E-specific culture, 14-day incubation, colony counts; read-out: Bone Marrow Stem Cell IC50 BFU-E
Protocol: (§5) Select compounds were tested in an in vitro selectivity study with human bone marrow progenitor cells. Fresh human bone marrow progenitor cells (Invitrogen) suspended in either BFU-E or GM-CSF-specific culture medium were added, at 10^5 cells/well, to triplicate serial dilutions of TA in 6-well plates. After 14-day incubations, colony counts were used to determine […] values. BFU-E colonies were confirmed using the benzidene technique. No cytotoxicity was observed from any of the tested compounds.

[8] = tested on: human bone marrow progenitor cells (CFU-GM); test: Human bone marrow progenitor cell assay, CFU-GM (GM-CSF-specific culture); type: cell-based; conditions: Homo sapiens, CFU-GM, 336 h, 14-day incubation, colony counts, read-out: Bone Marrow Stem Cell IC50 CFU-GM
Protocol: as §5

[9] = Hamster lung triphosphate assay; type: in vivo, Golden Syrian hamsters; conditions: analog triphosphate in hamster lung tissue 72 h after oral target dose of 50 mg/kg in PEG400
Protocol: Male Golden Syrian hamsters (n=3 per test compound) were fasted overnight and then administered test compounds in PEG400 at a target dose of 50 mg/kg by oral gavage. Food was returned 4 h after dosing. At 72 h post dose, animals were anesthetized and a sample of lung tissue was removed and flash-frozen in liquid nitrogen. Approximately 0.5 g of frozen tissue was homogenized using a Polytron homogenizer in 5 volumes homogenization solution (MeOH:50% aqueous KOH:268 mM EDTA, pH 8, 1750:5:750, v/v) in a dry ice/ethanol bath. Supernatants were prepared by centrifugation and analyzed by LC-MS/MS for concentrations of the corresponding analog triphosphates. See Table 7 below for the 72 hour lung triphosphate concentration. After 72 hours, the lung triphosphate concentration following administration of Compound AB and Compound AC was greater than 800 ng/g.

[10] = human respiratory syncytial virus

Structure (SMILES): Nc1ccn([C@@H]2O[C@@](CO)(CCl)C(O)[C@H]2F)c(=O)n1 (stereo in doubt) [W]
- EC90 [1, 10]: 0.58 µM
- Visual toxicity [2]: >338
- TC50 [3]: >100
- pEC50 [4]: 6.22
- pEC50 [5]: 5.02

Structure (SMILES): CC[C@]1(CO)O[C@@H](n2cnc3c(N(C)C)nc(N)nc32)[C@H](F)[C@@H]1O [Compound O, (2R,3R,4R,5R)-5-(2-Amino-6-(dimethylamino)-9H-purin-9-yl)-2-ethyl-4-fluoro-2-(hydroxymethyl)tetrahydrofuran-3-ol]
- EC90 [1, 10]: > 293 µM
- Visual toxicity [2]: >293
- TC50 [3]: >100
- pEC50 [4]: < 4.00
- pEC50 [5]: < 3.53

Structure (SMILES): CNc1nc(N)nc2c1ncn2[C@@H]1O[C@](CCl)(CO[P@@](=O)(N[C@@H](C)C(=O)OC(C)C)Oc2ccccc2)[C@@H](O)[C@H]1F [AI, (S)-Isopropyl 2-(((S)-(((2R,3R,4R,5R)-5-(2-amino-6-(methylamino)-9H-purin-9-yl)-2-(chloromethyl)-4-fluoro-3-hydroxytetrahydrofuran-2-yl)methoxy)(phenoxy)phosphoryl)amino) propanoate]
- EC90 [1, 10]: 0.13 µM
- pIC50 [6]: < 4.00
- Visual toxicity [2]: >1.6
- pIC50 [7]: < 4.00
- pIC50 [8]: < 4.00

Structure (SMILES): CC[C@]1(COP(=O)(N[C@@H](C)C(=O)OC(C)C)Oc2ccccc2)O[C@@H](n2cnc3c(N(C)C)nc(N)nc32)[C@H](F)[C@@H]1O (stereo partly drawn) [Compound P, (2S)-Isopropyl 2-(((((2R,3R,4R,5R)-5-(2-amino-6-(dimethylamino)-9H-purin-9-yl)-2-ethyl-4-fluoro-3-hydroxytetrahydrofuran-2-yl)methoxy)(phenoxy)-phosphoryl)amino) propanoate]
- EC90 [1, 10]: 88.6 µM
- Visual toxicity [2]: >143
- TC50 [3]: >100
- pEC50 [4]: < 4.00
- pEC50 [5]: < 3.79

Structure (SMILES): CNc1nc(N)nc2c1ncn2[C@@H]1O[C@](C)(COP(=O)(N[C@@H](C)C(=O)OC(C)C)Oc2ccccc2)[C@@H](O)[C@H]1F (stereo partly shown) [Compound D]
- EC90 [1, 10]: 1.7 µM
- Visual toxicity [2]: >172
- TC50 [3]: >100
- pEC50 [4]: < 4.00

Structure (SMILES): CNc1nc(N)nc2c1ncn2[C@@H]1O[C@](C)(CO)[C@@H](O)[C@H]1F [Compound C, (2R,3R,4R,5R)-5-(2-Amino-6-(methylamino)-9H-purin-9-yl)-4-fluoro-2-(hydroxymethyl)-2-methyltetrahydrofuran-3-ol]
- EC90 [1, 10]: 3.2 µM
- Visual toxicity [2]: >320
- TC50 [3]: >100
- pEC50 [4]: < 4.00

Structure (SMILES): CC(C)OC(=O)[C@H](C)N[P@](=O)(OC[C@@]1(C)O[C@@H](n2cnc3c(N(C)C)nc(NC(=O)C(C)C)nc32)[C@H](F)[C@@H]1O)Oc1ccccc1 [AO, (S)-Isopropyl 2-(((S)-(((2R,3R,4R,5R)-5-(6-(dimethylamino)-2-isobutyramido-9H-purin-9-yl)-4-fluoro-3-hydroxy-2-methyltetrahydrofuran-2-yl)methoxy)(phenoxy)phosphoryl)amino) propanoate]
- EC90 [1]: 0.096 µM
- 72 h Lung TP Concentration [9]: 108 ng/g
- Visual toxicity [2]: >1.5
